Assay results reported in patent publication US20210363110A1, “4-METHYLDIHYDROPYRIMIDINONE COMPOUNDS AND PHARMACEUTICAL USE THEREOF” (Japan Tobacco Inc., priority 2018, published 2021).

Molecular target: T1, mouse RORγ (Mus musculus, UniProt P51450)
T1 construct: from Ile251 to Lys516 for mouse RORγ; expressed in transfected cells; host or cells: CHO cells (transient co-transfection with pG5-Luc)
T1 sequence (P51450 251-516): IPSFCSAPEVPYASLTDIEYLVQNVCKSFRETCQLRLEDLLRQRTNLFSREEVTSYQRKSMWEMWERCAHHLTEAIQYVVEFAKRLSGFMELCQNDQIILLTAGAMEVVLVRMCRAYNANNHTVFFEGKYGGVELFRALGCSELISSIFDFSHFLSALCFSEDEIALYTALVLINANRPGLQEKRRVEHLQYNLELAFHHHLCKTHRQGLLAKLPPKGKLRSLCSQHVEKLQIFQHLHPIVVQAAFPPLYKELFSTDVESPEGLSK
Test: Reporter gene assay for inhibitory effect against RORγ transcriptional activity (GAL4-mRORγ LBD, luciferase, CHO cells)
Assay type: cell-based
Details: pFA/mRORγ + pG5-Luc, 2 days incubation
Protocol: Inhibitory effect against RORγ transcriptional activity was assessed by reporter gene assay for test compounds.
cDNAs encoding human and mouse RORγ ligand binding domains (LBD) were obtained based on the sequences of human RORγ (Genbank registered number NM_005060.3) and mouse RORγ (Genbank registered number NM_011281.2) (LBD sequences: from Ser253 to Lys518 for human RORγ; from Ile251 to Lys516 for mouse RORγ).
LBD cDNAs of human and mouse RORγ were inserted into pFA-CMV vector (Agilent Technologies, Inc.), which expresses GAL4-DNA binding domain fusion protein. The resulting plasmids are hereinafter referred to as pFA/hRORγ plasmid and pFA/mRORγ plasmid, respectively. […]
Cell viability was tested by luminescence method with CellTiter-Glo (Promega). […] Ten minutes after the addition, luminescence was measured for each well with a microplate reader. The luminescence count in the cells treated with 0.2% DMSO alone was defined as 100%, and the cell viability after treatment with the test compound was calculated as a percentage (%-of-control) based on the value of 0.2% DMSO alone. When the cell viability was 70% or less, a test compound was assessed to have cytotoxicity.
RORγ transcriptional activity was detected as the intracellular luciferase activity using SteadyLite HTS Reporter Gene Assay System (Perkin Elmer). […]

EC50 [nM] | SMILES
23 | CC(C)C1=CN(C23CC(C(=O)O)(C2)C3)C(=O)N[C@@]1(C)c1ccc([C@@H]2C[C@H]2C(C)(C)C)c(Cl)c1 [Compound (1), 3-{(S)-4-[4-((1R,2R)-2-tert-Butyl-cyclopropyl)-3-chloro-phenyl]-5-isopropyl-4-methyl-2-oxo-3,4-dihydro-2H-pyrimidin-1-yl}bicyclo[1.1.1]pentane-1-carboxylic acid]
29 | CC[C@H](C)C1=CN(C23CC(C(=O)O)(C2)C3)C(=O)N[C@@]1(C)c1ccc([C@@H]2C[C@H]2C(C)(C)C)c(Cl)c1 [Compound (2), 3-{(S)-5-((S)-sec-Butyl)-4-[4-((1R,2R)-2-tert-butyl-cyclopropyl)-3-chloro-phenyl]-4-methyl-2-oxo-3,4-dihydro-2H-pyrimidin-1-yl}bicyclo[1.1.1]pentane-1-carboxylic acid]
